Assay results: PMC12213745, “Compounds from Cyclocarya paliurus leaves inhibit binary division of methicillin-resistant Staphylococcus aureus by disrupting FtsZ dynamic” (Frontiers in Microbiology, 2025)

system: S. aureus ATCC25923; experiment: SEM analysis, cell long axis; type: cell-based, Staphylococcus aureus; conditions: 2 × MIC, 2 h, mean ± SD, PBS control 0.52 ± 0.05
Method: Scanning electron microscopy (SEM) was used to observe the morphological changes in bacterial cells treated with the isolated compounds. S. aureus ATCC 25923 and MRSA-4 were grown in MHB to mid-log phase (OD600 = 0.4–0.6) as previously described. The bacteria cultures were treated with AA, MA, or UA at 2 × MIC for 2 h at 37°C with shaking at 150 rpm. Untreated cultures (PBS group) served as the growth control. After incubation, bacterial cells were harvested by centrifugation and washed three times with PBS (pH 7.2). Coverslips (8 mm diameter) were cleaned with absolute ethanol under ultrasonication, air-dried, immersed in 0.1% (w/v) chitosan solution (dissolved in 1% acetic acid) for 5 s, and air-dried again at room temperature ([Su et al., 2022]). A 25 μL aliquot of the washed bacterial suspension was added to each coverslip and allowed to adhere for 1 h at room temperature. Adhered cells were fixed with 1 mL of 2.5% (v/v) glutaraldehyde at 4°C overnight. Fixed samples were rinsed 2–3 times with PBS (5 min per rinse), then dehydrated through a graded ethanol series: 50, 70, and 90% ethanol (each once for 5 min), followed by 100% ethanol (three times for 5 min each). After dehydration, samples were air-dried overnight at room temperature. SEM imaging was performed using an EVO 10 scanning electron microscope (Zeiss, Jena, Germany). Cell long-axis statistical analysis was conducted using ImageJ software (Version 1.42q, National Institutes of Health, MD, USA).
Having established the antibacterial activity of AA, MA, and UA, we next examined their effects on bacterial morphology. We employed SEM to examine the alterations induced by these compounds in S. aureus ATCC25923 and MRSA-4. Bacterial cultures were treated with AA, MA, or UA at 2 × MIC for 2 h, while untreated (PBS group) cultures served as negative controls. […] In PBS groups, both S. aureus ATCC25923 and MRSA-4 maintained typical spherical morphology with smooth and intact surfaces.

Compound | length of long axis of cells
CC1(C)CC[C@]2(C(=O)O)CC[C@]3(C)C(=CC[C@@H]4[C@@]5(C)C[C@@H](O)[C@H](O)C(C)(C)[C@@H]5CC[C@]43C)[C@@H]2C1 [MA, maslinic acid] | 0.78 ± 0.07 μm
C[C@H]1[C@H](C)CC[C@]2(C(=O)O)CC[C@]3(C)C(=CC[C@@H]4[C@@]5(C)C[C@@H](O)[C@H](O)[C@@](C)(CO)[C@@H]5CC[C@]43C)[C@H]12 [AA, asiatic acid] | 0.78 ± 0.06 μm
C[C@H]1[C@H](C)CC[C@]2(C(=O)O)CC[C@]3(C)C(=CC[C@@H]4[C@@]5(C)CC[C@H](O)C(C)(C)[C@@H]5CC[C@]43C)[C@H]12 [UA, ursolic acid] | 0.75 ± 0.05 μm

system: S. enterica subsp. Enterica (1.1114); experiment: MIC, broth microdilution (CLSI); type: cell-based, Salmonella enterica subsp. enterica; conditions: Salmonella enterica; S. enterica subsp. Enterica (1.1114); ≥ 90% growth inhibition, 18–24 h; read-out: MIC
Source text: Staphylococcus aureus ATCC25923 and Escherichia coli ATCC25922 were obtained from the American Type Culture Collection (ATCC, Manassas, VA, USA). The Methicillin-resistant S. aureus (MRSA) clinical isolate MRSA-4, previously confirmed as mecA-positive and characterized for its antibiotic resistance profile ([Sun et al., 2023]), was used in this study. Staphylococcus epidermidis (GDMCC 1.143), Enterococcus faecalis (GDMCC 1.164), and Salmonella enterica subsp. enterica (GDMCC 1.1114) were obtained from the Guangdong Microbial Culture Collection Center (GDMCC, Guangzhou, China). The Pseudomonas aeruginosa PA14 strain was kindly provided by Professor Min Wu (Southwest Medical University, China). All bacterial strains were routinely cultured in Mueller-Hinton broth (MHB) or Luria-Bertani (LB) broth medium at 37°C with shaking at 200 rpm. Vancomycin was purchased from Solarbio Science & Technology Co., Ltd. (Beijing, China), and oxacillin was obtained from Taiji Group Hengsheng Pharmaceutical Co., Ltd. (Chengdu, China). The polyclonal rabbit primary anti-body to FtsZ was purchased from Abcam PLC (Cambridge, UK). Alexa488-conjugated goat anti-rabbit IgG was purchased from ZSGB-BIO Biotechnology (Beijing, China). DAPI staining solution was purchased from Beyotime Biotechnology (Shanghai, China).
The minimum inhibitory concentrations (MICs) of the test compounds (AA, MA, and UA) were determined using the standard broth microdilution method in accordance with the Clinical and Laboratory Standards Institute (CLSI) guidelines ([Humphries et al., 2021]). Bacteria were cultured in MHB or LB broth at 37°C with shaking (200 rpm) to the logarithmic phase, then diluted to a final density of 1 × 10^6 CFU/mL. Test compounds (dissolved in DMSO) and positive controls (vancomycin and oxacillin) were diluted in MHB and serially twofold diluted in 96-well plates. Each well was inoculated with 100 μL of bacterial suspension (1 × 10^6 CFU/mL), yielding a final bacterial density of 5 × 10^5 CFU/mL and a total volume of 200 μL. The final concentrations tested were 128 to 1 μg/mL for AA, MA, and UA; 16 to 0.5 μg/mL for vancomycin; and 64 to 0.0625 μg/mL for oxacillin. DMSO was used as a solvent control. Plates were incubated statically at 37°C for 18–24 h. After incubation, the OD600 was measured using a microplate reader (SpectraMax i3x, Molecular Devices, CA, USA). The MIC was defined as the lowest compound concentration that caused ≥ 90% inhibition of bacterial growth compared to the drug-free growth control. All tests were performed in three independent biological replicates.
Following the isolation and identification of AA, MA, and UA from ECPL, we evaluated their antibacterial activity and spectrum. The MICs of the compounds were determined against MRSA-4, S. aureus ATCC25923, S. epidermidis, and E. faecalis (Gram-positive), as well as P. aeruginosa PA14, E. coli ATCC25922, and S. enterica subsp. Enterica (Gram-negative) using the standard broth microdilution method in accordance with CLSI guidelines ([Humphries et al., 2021]).

Compound | MIC
CC1(C)CC[C@]2(C(=O)O)CC[C@]3(C)C(=CC[C@@H]4[C@@]5(C)C[C@@H](O)[C@H](O)C(C)(C)[C@@H]5CC[C@]43C)[C@@H]2C1 [MA, maslinic acid] | > 128 µg/mL
C[C@H]1[C@H](C)CC[C@]2(C(=O)O)CC[C@]3(C)C(=CC[C@@H]4[C@@]5(C)C[C@@H](O)[C@H](O)[C@@](C)(CO)[C@@H]5CC[C@]43C)[C@H]12 [AA, asiatic acid] | > 128 µg/mL
C[C@H]1[C@H](C)CC[C@]2(C(=O)O)CC[C@]3(C)C(=CC[C@@H]4[C@@]5(C)CC[C@H](O)C(C)(C)[C@@H]5CC[C@]43C)[C@H]12 [UA, ursolic acid] | > 128 µg/mL
